Laboratory results reported in ChEMBL document CHEMBL1201862, “PubChem BioAssay data set” (2004).
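Where inhibition never reached the appropriate level, the endpoint shown equals the highest concentration tested. Otherwise, values were interpolated linearly from a five-concentration, 48-hour dose response in 96-well plates. GI50 marks 50% less growth.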 The source made the active and inactive calls. Cut-off read from the data, not from the text of the source: active = GI50 up to about 1.1 µM and inactive = higher.

Columns and labels:
Test in all cases: NCI-60 cell line screen, 48 h
[1] = system: BT-549
[2] = system: UO-31
[3] = system: SN12C
[4] = system: NCI-H226
[5] = system: LOX IMVI
[6] = system: MDA-N
[7] = system: MDA-MB-435
[8] = system: HCT-116
[9] = system: T47D
[10] = system: OVCAR-5
[11] = system: RXF 393
[12] = system: TK-10
[13] = system: SF-268
[14] = system: CAKI-1
[15] = system: Hs-578T
[16] = system: NCI/ADR-RES
[17] = system: DU-145
[18] = system: SK-MEL-5
[19] = system: MDA-MB-231
[20] = system: A498
[21] = system: NCI-H522
[22] = system: KM12
[23] = system: PC-3
[24] = system: HL-60
[25] = system: HT-29
[26] = system: U-251
[27] = system: 786-0
[28] = system: SNB-75
[29] = system: MCF7
[30] = system: IGROV-1
[31] = system: Malme-3M
[32] = system: SK-OV-3
[33] = system: SR
[34] = system: HCC 2998
[35] = system: OVCAR-8
[36] = system: M14
[37] = system: SF-539
[38] = system: MOLT-4
[39] = system: SK-MEL-2
[40] = system: UACC-257
[41] = system: OVCAR-4
[42] = system: HCT-15
[43] = system: SF-295
[44] = system: EKVX
[45] = system: UACC-62
[46] = system: ACHN
[47] = system: CCRF-CEM
[48] = system: HOP-92
[49] = system: SNB-19
[50] = system: A549
[51] = system: SK-MEL-28
[52] = system: NCI-H23
[53] = system: K562
[54] = system: COLO 205
[55] = system: NCI-H460
[56] = system: HOP-62
[57] = system: OVCAR-3
[58] = system: SW-620
[59] = system: RPMI-8226

O=C(CCN1CC2CCC(CC2)C1)c1cccs1
GI50 [1]: 21.4 µM (inactive)
GI50 [2]: 8.77 µM (inactive)
GI50 [3]: 18.1 µM (inactive)
GI50 [4]: > 100 µM (inactive)
GI50 [5]: 10.7 µM (inactive)
GI50 [6]: 17.1 µM (inactive)
GI50 [7]: 20.8 µM (inactive)
GI50 [8]: 19.1 µM (inactive)
GI50 [9]: 6.92 µM (inactive)
GI50 [10]: 16.4 µM (inactive)
GI50 [11]: 19 µM (inactive)
GI50 [12]: 8.73 µM (inactive)
GI50 [13]: 21.2 µM (inactive)
GI50 [14]: 18.7 µM (inactive)
GI50 [15]: 27.3 µM (inactive)
GI50 [16]: 24.6 µM (inactive)
GI50 [17]: 17.6 µM (inactive)
GI50 [18]: 40.1 µM (inactive)
GI50 [19]: 18.2 µM (inactive)
GI50 [20]: > 87.7 µM (inactive)
GI50 [21]: 17.4 µM (inactive)
GI50 [22]: 19.9 µM (inactive)
GI50 [23]: 16.7 µM (inactive)
GI50 [24]: 20.7 µM (inactive)
GI50 [25]: 24.5 µM (inactive)
GI50 [26]: 18.3 µM (inactive)
GI50 [27]: 5.35 µM (inactive)
GI50 [28]: 19.2 µM (inactive)
GI50 [29]: 8.59 µM (inactive)
GI50 [30]: 8.73 µM (inactive)
GI50 [31]: 21.1 µM (inactive)
GI50 [32]: > 37.8 µM (inactive)
GI50 [33]: 4.49 µM (inactive)
GI50 [34]: 15.6 µM (inactive)
GI50 [35]: 18.7 µM (inactive)
GI50 [36]: 16.4 µM (inactive)
GI50 [37]: 20.9 µM (inactive)
GI50 [38]: 3.32 µM (inactive)
GI50 [39]: 17.3 µM (inactive)
GI50 [40]: 16.1 µM (inactive)
GI50 [41]: 30.8 µM (inactive)
GI50 [42]: 20.4 µM
GI50 [43]: > 100 µM (inactive)
GI50 [44]: 19.1 µM (inactive)
GI50 [45]: 17.7 µM (inactive)
GI50 [46]: 18.7 µM (inactive)
GI50 [47]: 1.94 µM (inactive)
GI50 [48]: 6.01 µM (inactive)
GI50 [49]: > 53 µM (inactive)
GI50 [50]: 23.9 µM (inactive)
GI50 [51]: 17.1 µM (inactive)
GI50 [52]: 18.4 µM (inactive)
GI50 [53]: 17.5 µM (inactive)
GI50 [54]: 18.5 µM (inactive)
GI50 [55]: 18.7 µM (inactive)
GI50 [56]: 19.3 µM (inactive)
GI50 [57]: 21.1 µM (inactive)
GI50 [58]: 2.79 µM (inactive)
GI50 [59]: 1.85 µM (inactive)

[N-]=[N+]=Nc1ccc(CNc2cc(=O)[nH]c(=O)[nH]2)cc1
GI50 [1]: > 100 µM (inactive)
GI50 [2]: > 100 µM (inactive)
GI50 [3]: > 100 µM (inactive)
GI50 [4]: > 100 µM (inactive)
GI50 [5]: > 100 µM (inactive)
GI50 [6]: > 100 µM (inactive)
GI50 [7]: > 49.2 µM (inactive)
GI50 [8]: > 100 µM (inactive)
GI50 [9]: > 100 µM (inactive)
GI50 [10]: > 100 µM (inactive)
GI50 [11]: > 100 µM (inactive)
GI50 [12]: > 100 µM (inactive)
GI50 [13]: > 100 µM (inactive)
GI50 [14]: > 100 µM (inactive)
GI50 [15]: > 100 µM (inactive)
GI50 [16]: > 100 µM (inactive)
GI50 [17]: > 100 µM (inactive)
GI50 [18]: > 100 µM (inactive)
GI50 [19]: > 100 µM (inactive)
GI50 [20]: > 100 µM (inactive)
GI50 [21]: > 100 µM (inactive)
GI50 [22]: > 100 µM (inactive)
GI50 [23]: > 100 µM (inactive)
GI50 [24]: > 100 µM (inactive)
GI50 [25]: > 100 µM (inactive)
GI50 [26]: > 100 µM (inactive)
GI50 [27]: > 100 µM (inactive)
GI50 [28]: > 100 µM (inactive)
GI50 [29]: > 100 µM (inactive)
GI50 [30]: > 95.7 µM (inactive)
GI50 [31]: > 100 µM (inactive)
GI50 [32]: > 100 µM (inactive)
GI50 [33]: > 100 µM (inactive)
GI50 [34]: > 100 µM (inactive)
GI50 [35]: > 100 µM (inactive)
GI50 [36]: > 100 µM (inactive)
GI50 [37]: > 100 µM (inactive)
GI50 [38]: > 100 µM (inactive)
GI50 [39]: > 100 µM (inactive)
GI50 [40]: > 100 µM (inactive)
GI50 [41]: > 100 µM (inactive)
GI50 [42]: > 100 µM
GI50 [43]: > 100 µM (inactive)
GI50 [44]: > 100 µM (inactive)
GI50 [45]: > 100 µM (inactive)
GI50 [46]: > 100 µM (inactive)
GI50 [47]: > 100 µM (inactive)
GI50 [48]: > 100 µM (inactive)
GI50 [49]: > 100 µM (inactive)
GI50 [50]: > 100 µM (inactive)
GI50 [51]: > 50.7 µM (inactive)
GI50 [52]: > 100 µM (inactive)
GI50 [53]: > 100 µM (inactive)
GI50 [54]: > 100 µM (inactive)
GI50 [55]: > 100 µM (inactive)
GI50 [56]: > 100 µM (inactive)
GI50 [57]: > 100 µM (inactive)
GI50 [58]: > 64.1 µM (inactive)
GI50 [59]: > 100 µM (inactive)

O=C(CSc1nc(O)nc2[nH]cnc12)Nc1ccccc1
GI50 [1]: 46.9 µM (inactive)
GI50 [2]: > 100 µM (inactive)
GI50 [3]: 48.5 µM (inactive)
GI50 [4]: 37.1 µM (inactive)
GI50 [5]: 54.5 µM (inactive)
GI50 [6]: 57.5 µM (inactive)
GI50 [7]: 53.1 µM (inactive)
GI50 [8]: 91.2 µM (inactive)
GI50 [9]: > 100 µM (inactive)
GI50 [10]: > 100 µM (inactive)
GI50 [11]: > 100 µM (inactive)
GI50 [12]: > 100 µM (inactive)
GI50 [13]: 69.2 µM (inactive)
GI50 [14]: > 100 µM (inactive)
GI50 [15]: 75 µM (inactive)
GI50 [16]: > 100 µM (inactive)
GI50 [17]: > 100 µM (inactive)
GI50 [18]: 46.7 µM (inactive)
GI50 [19]: > 100 µM (inactive)
GI50 [20]: 76.7 µM (inactive)
GI50 [21]: 86.9 µM (inactive)
GI50 [22]: > 100 µM (inactive)
GI50 [23]: 36.6 µM (inactive)
GI50 [24]: > 100 µM (inactive)
GI50 [25]: > 100 µM (inactive)
GI50 [26]: 33.1 µM (inactive)
GI50 [27]: 57.5 µM (inactive)
GI50 [28]: > 100 µM (inactive)
GI50 [29]: 44.6 µM (inactive)
GI50 [30]: > 100 µM (inactive)
GI50 [31]: > 100 µM (inactive)
GI50 [32]: > 100 µM (inactive)
GI50 [33]: 51.6 µM (inactive)
GI50 [34]: > 100 µM (inactive)
GI50 [35]: > 100 µM (inactive)
GI50 [36]: > 100 µM (inactive)
GI50 [37]: 26.2 µM (inactive)
GI50 [38]: 93.5 µM (inactive)
GI50 [39]: > 100 µM (inactive)
GI50 [40]: 86.9 µM (inactive)
GI50 [41]: > 100 µM (inactive)
GI50 [42]: 61.9 µM
GI50 [43]: 86.9 µM (inactive)
GI50 [44]: > 100 µM (inactive)
GI50 [45]: 80.7 µM (inactive)
GI50 [46]: > 100 µM (inactive)
GI50 [47]: 33.7 µM (inactive)
GI50 [48]: > 100 µM (inactive)
GI50 [49]: > 100 µM (inactive)
GI50 [50]: > 100 µM (inactive)
GI50 [51]: > 100 µM (inactive)
GI50 [52]: > 100 µM (inactive)
GI50 [53]: 85.3 µM (inactive)
GI50 [54]: > 100 µM (inactive)
GI50 [55]: > 100 µM (inactive)
GI50 [56]: 52.8 µM (inactive)
GI50 [57]: > 100 µM (inactive)
GI50 [58]: 66.4 µM (inactive)
GI50 [59]: > 100 µM (inactive)
